Experimental data from patent US20150218534A1, “MODIFIED DNA POLYMERASE” (TOYOBO CO., LTD., priority 2012, published 2015).

System: bisulfite-treated human genomic DNA (MINT1, RAR, THBS1, MINT31)
Assay: PCR amplification of bisulfite-treated DNA
Format: biochemical
Details: 40 cycles (FIG. 12)
Experimental: Using bisulfite-treated DNA as a template and various primers, the difference in PCR amplification was compared. For comparison, KOD mutant (Y7A/V93K) and KOD (wild-type), each mixed with 1 μg of a KOD antibody per U of the enzyme, and Taq DNA polymerase mixed with an antibody (a mixture of equal amounts of Taq DNA polymerase (produced by Toyobo Co. Ltd.) and Anti-Taq High (produced by Toyobo Co. Ltd.)) were used.
The bisulfite-treated DNA used was human genomic DNA (produced by Roche) that had been treated with a MethylCode Bisulfite Conversion Kit of Invitrogen.
For PCR with the KOD mutant (Y7A/V93K) and PCR with the KOD, a buffer, MgSO4, and dNTPs included in KOD-Plus-Ver. 2 (produced by Toyobo Co. Ltd.) were used. 50 μl of individual reaction solutions containing 1× PCR buffer, 1.5 mM MgSO4, dNTPs (dATP, dTTP, dCTP, dGTP) in an amount of 0.2 mM, primers (SEQ ID NOs: 42 and 43 for amplification of MINT1; SEQ ID NOs: 44 and 45for amplification of RAR; SEQ ID NOs: 46 and 47 for amplification of THBS1; SEQ ID NOs: 48 and 49 for amplification of MINT31) in an amount of 15 pmol, 1 μl of bisulfite-treated DNA extract, and 1 U of each respective enzyme mixed with the antibody were used. PCR was performed using a GeneAmp PCR system 9700 (Applied Biosystems) on the following schedule: preliminary reaction at 94° C. for 2 minutes, followed by 40 cycles, each cycle consisting of 98° C. for 10 seconds, 55° C. for 15 seconds, and 68° C. for 1 minute.
For PCR with the Taq DNA polymerase, 50 μl of a reaction solution containing 1× buffer included in Blend Taq (product of Toyobo), dNTPs (dATP, […], dCTP, dGTP) in an amount of 0.2 mM, primers in an amount of 15 pmol (the same as above), 1 μl of bisulfite-treated DNA extract, and 2.5 U of the enzyme mixed with the antibody was used. […]
After the completion of each individual reaction, each of the resulting reaction solutions was analyzed using a DNA-1000 kit for MultiNA (produced by Shimadzu Corporation) to confirm amplified DNA fragments.

Substance: KOD Y7A/V93K: modified KOD DNA polymerase with Y7A and V93K
- amplification of bisulfite-treated DNA: stable amplification was confirmed
